Source: patent US10457644B2, “Pyrazol compounds as EAAT3 inhibitors” (Hoffmann-La Roche Inc., priority 2016, dated 2019)

How the values were obtained:
human EAAT3 = molecular target: T1, human EAAT3 (Homo sapiens, UniProt P43005); test: FLIPR Membrane Potential (FMP) assay; assay type: cell-based; settings: HEK-293 cells stably expressing human EAAT3; L-glutamate as agonist at 80% of maximum response; antagonist applied 15 min before; Kb by Cheng-Prusoff from IC50
T1 construct: expressed in transfected cells
T1 sequence (P43005 1-524): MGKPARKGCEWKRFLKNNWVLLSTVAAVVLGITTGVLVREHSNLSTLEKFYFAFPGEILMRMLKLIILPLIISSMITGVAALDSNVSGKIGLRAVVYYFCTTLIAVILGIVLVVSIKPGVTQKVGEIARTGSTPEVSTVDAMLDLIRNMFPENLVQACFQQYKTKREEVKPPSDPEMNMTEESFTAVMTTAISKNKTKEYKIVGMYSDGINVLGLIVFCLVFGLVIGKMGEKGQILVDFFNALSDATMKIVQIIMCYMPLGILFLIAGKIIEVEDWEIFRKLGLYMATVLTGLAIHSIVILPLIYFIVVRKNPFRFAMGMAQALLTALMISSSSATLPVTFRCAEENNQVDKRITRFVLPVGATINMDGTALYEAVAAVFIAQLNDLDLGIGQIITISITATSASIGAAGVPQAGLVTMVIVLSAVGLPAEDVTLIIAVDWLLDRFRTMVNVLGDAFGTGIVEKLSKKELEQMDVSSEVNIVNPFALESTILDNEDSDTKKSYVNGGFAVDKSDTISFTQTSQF
Experimental: The FLIPR Membrane Potential (FMP) Assay
HEK-293 cells stably expressing human EAAT3 were seeded at 55 000 cells/well in growth medium (DMEM glutamate free (Invitrogen 11960-044), 1% Pen Strep (10 ml/l GIBCO BRL N^o 15140-023), 10% FCS non dialysed heat inactivated, 5 mg/l puromycin) in poly-D-lysine treated 96-well black microtiter plates with clear-bottom. After 24 h, the growth medium was removed and 100 μl/well of Krebs buffer (140 mM NaCl, 4.7 mM KCl, 2.5 mM CaCl2, 1.2 mM MgCl2, 11 mM HEPES, 10 mM D-glucose, pH=7.4) added. The cells were then loaded by adding 100 μl/well FMP assay dye (FLIPR Membrane Potential assay reagent, Molecular Devices). The 96-well plates were then incubated at 37° C. for 1 h. The depolarization of the cells will cause more dye to enter in the cells, where it will bind to intracellular proteins and lipids and cause an increase in the fluorescence signal. Antagonist potency at human EAAT3 was determined by using L-glutamate as agonist at a concentration which gives 80% of the maximum response. The antagonists were applied 15 min before the application of the agonist L-glutamate. The assays were performed at room temperature and measurements done by using a Fluorometric Imaging Plate Reader (FLIPR, Molecular Devices) and filter #2. Responses were measured as peak increase in fluorescence minus basal (i.e. fluorescence without addition of L-glutamate). Kb was determined using the Cheng-Prusoff equation Kb=IC50/[1+(A/EC50)], where IC50 is the concentration of the antagonist producing 50% inhibition, A is the concentration of the agonist against which the IC50 is being determined ([…]) and EC50 is the concentration of the agonist producing […].

Compound | Kb (human EAAT3) [nM] | melting point [°C]
Cn1nccc1-c1cc(C(=O)NC(C)(C)C)cc(-c2ccc(Cl)cc2)c1 [Example 1, N-tert-Butyl-3-(4-chlorophenyl)-5-(2-methyl-pyrazol-3-yl)-benzamide] | 240 | 191
CC(C)(C)NC(=O)c1cc(-c2ccc(F)cc2)cc(-c2ccnn2C(C)(C)C)c1 [Example 2, N-tert-Butyl-3-(2-tert-butyl-pyrazol-3-yl)-5-(4-fluorophenyl)-benzamide] | 190 | 210
CC(C)(C)NC(=O)c1cc(-c2ccc(C(F)(F)F)cc2)cc(-c2ccnn2C(C)(C)C)c1 [Example 3, N-tert-Butyl-3-(2-tert-butyl-pyrazol-3-yl)-5-[4-(trifluoromethyl)-phenyl]-benzamide] | 280 | 205
CC(C)(C)NC(=O)c1cc(-c2ccc(Cl)cc2)cc(-c2ccnn2C(C)(C)C)c1 [Example 4, N-tert-Butyl-3-(2-tert-butyl-pyrazol-3-yl)-5-(4-chlorophenyl)-benzamide] | 320 | 209
CC(C)n1nccc1-c1cc(C(=O)NC(C)(C)C)cc(-c2ccc(F)cc2)c1 [Example 6, N-tert-Butyl-3-(4-fluorophenyl)-5-(2-propan-2-yl-pyrazol-3-yl)-benzamide] | 95 | 161
CC(C)n1nccc1-c1cc(C(=O)NC(C)(C)C)cc(-c2ccc(F)c(F)c2)c1 [Example 8, N-tert-Butyl-3-(3,4-difluorophenyl)-5-(2-propan-2-yl-pyrazol-3-yl)-benzamide] | 390 | 82
Cc1ccc(-c2cc(C(=O)NC(C)(C)C)cc(-c3ccnn3C(C)C)c2)cc1 [Example 9, N-tert-Butyl-3-(4-methylphenyl)-5-(2-propan-2-yl-pyrazol-3-yl)-benzamide] | 260 | 163
CC(C)n1nccc1-c1cc(C(=O)NC(C)(C)C)cc(-c2ccccc2)c1 [Example 13, N-tert-Butyl-3-phenyl-5-(2-propan-2-yl-pyrazol-3-yl)-benzamide] | 300 | 168
CC(C)n1nccc1-c1cc(C(=O)NC(C)(C)C)cc(-c2ccc(C3CC3)cc2)c1 [Example 14, N-tert-Butyl-3-(4-cyclopropyl-phenyl)-5-(2-propan-2-yl-pyrazol-3-yl)-benzamide] | 880 | 83
Cc1cc(-c2cc(C(=O)NC(C)(C)C)cc(-c3ccnn3C(C)C)c2)ccc1F [Example 15, N-tert-Butyl-3-(4-fluoro-3-methyl-phenyl)-5-(2-propan-2-yl-pyrazol-3-yl)-benzamide] | 1280 | 155

Now from value to compound:

Kb (human EAAT3) [nM] | melting point [°C] | Compound
170 | 84 | CC(C)n1nccc1-c1cc(C(=O)NC(C)(C)C)cc(-c2ccc(Cl)cc2)c1 [Example 5, N-tert-Butyl-3-(4-chlorophenyl)-5-(2-propan-2-yl-pyrazol-3-yl)-benzamide]
180 | 81 | CC(C)n1nccc1-c1cc(C(=O)NC(C)(C)C)cc(-c2ccc(C(F)(F)F)cc2)c1 [Example 7, N-tert-Butyl-3-(2-propan-2-yl-pyrazol-3-yl)-5-[4-(trifluoromethyl)-phenyl]-benzamide]
550 | 86 | CC(C)c1ccc(-c2cc(C(=O)NC(C)(C)C)cc(-c3ccnn3C(C)C)c2)cc1 [Example 10, N-tert-Butyl-3-(4-propan-2-yl-phenyl)-5-(2-propan-2-yl-pyrazol-3-yl)-benzamide]
290 | 79 | COc1ccc(-c2cc(C(=O)NC(C)(C)C)cc(-c3ccnn3C(C)C)c2)cc1 [Example 11, N-tert-Butyl-3-(4-methoxyphenyl)-5-(2-propan-2-yl-pyrazol-3-yl)-benzamide]
610 | 81 | CC(C)n1nccc1-c1cc(C(=O)NC(C)(C)C)cc(-c2ccc(F)c(Cl)c2)c1 [Example 12, N-tert-Butyl-3-(3-chloro-4-fluorophenyl)-5-(2-propan-2-yl-pyrazol-3-yl)-benzamide]
